This is an account of results in patent publication US10450288B2, “Hydroxy formamide derivatives and their use” (GLAXOSMITHKLINE INTELLECTUAL PROPERTY (NO.2) LIMITED, priority 2014, dated 2019).

The first assay has as its system human cardiac fibroblasts. The assay can be described thus: Cell-based inhibition assay of generation of procollagen I C-terminal propeptide (PICP), PICP ELISA. The following applies: Cardiac fibroblast; human cardiac fibroblasts, crowding media, 24 to 48 hr, PICP ELISA of media; read-out: pIC50, PICP cellular inhibition assay (converted). The protocol:
Cell-Based Inhibition Assay of Generation of Procollagen I C-Terminal Propeptide (PICP) and Mature Collagen:
An adaptation of the collagen deposition assay described by Chen, C. Z. C., et al., British Journal of Pharmacology, 2009, 158, 1196-1209 was used to examine effect of compounds on procollagen I processing and collagen deposition. In the adapted assay, human cardiac fibroblasts were utilized. Processing of procollagen I was determined by a PICP ELISA assay and deposition of mature collagen was determined by immunostaining.
Human cardiac fibroblasts were cultured and maintained until passage 6 in FGM-3 media (Lonza, #CC-3132) in a 37° C. humidified incubator with 5% CO2. They were then seeded in 96-well black wall, clear bottom plates at 10,000 to 15,000 cells per well in eagle's minimum essential media (EMEM, ATCC #30-2003) containing 10% fetal bovine serum (FBS, Life Technologies #10082147), 1% Glutamax (Life Technologies #35050061) and 1% Penicillin and Streptomycin (Life Technologies #15070063). These cultures were placed in 37° C. incubator. The next day, media were removed by aspiration and cells were rinsed with phosphate buffered saline. Crowding media (also called ficoll media) was prepared by adding 112.5 mg/ml of ficoll70 and 75 mg/ml ficoll400 (GE healthcare #17-0310-10 and 17-0300-10, respectively), 100 μM ascorbic acid, 1% Glutamax and 1% Penicillin and Streptomycin to EMEM media. Test compounds (dissolved in DMSO) were diluted into crowding media and then added to the cells. Final concentration of DMSO in crowding media was less than 0.3%. Cells were treated for 24 to 48 hr in a 37° C. incubator. At the end of the treatment period, cell media were collected. The level of PICP in the media were determined by a PICP ELISA assay (Quidel #8003) following the manufacturer's protocol. Potencies of test compounds were calculated by fitting PICP levels, relative to untreated controls, to log (inhibitor) vs. response equation using Graphpad Prism software 5.0 and expressed as pIC50.
For orientation: In an ELISA, binding on a coated surface is turned into a signal by an enzyme label.
Turning to `CCCCC[C@H](CN(O)C=O)C(=O)NCNC(=O)c1ccc(-c2cc(OCC)cc(C(=O)O)c2)o1` [Example 30, (R)-3-ethoxy-5-(5-(((2-((N-hydroxyformamido)methyl)heptanamido)methyl)carbamoyl)furan-2-yl)benzoic acid], the IC50 was under 3.98 µM.

Take `CCCCC[C@H](CN(O)C=O)C(=O)NCNC(=O)c1ccc(-c2cc(OC)cc(C(=O)NCCN)c2)o1` [Example 33, (R)-5-(3-((2-aminoethyl)carbamoyl)-5-methoxyphenyl)-N-((2-((N-hydroxyformamido)methyl)heptanamido)methyl) furan-2-carboxamide]: the IC50 was under 3.98 µM.

As to `CCCCC[C@H](CN(O)C=O)C(=O)NCNC(=O)c1ccc(-c2cc(OCC)cc(C(=O)NCCN)c2)o1` [Example 34, (R)-5-(3-((2-aminoethyl)carbamoyl)-5-ethoxyphenyl)-N-((2-((N-hydroxyformamido)methyl)heptanamido)methyl) furan-2-carboxamide], the IC50 is under 3.98 µM.

As for `CCCCC[C@H](CN(O)C=O)C(=O)NCNC(=O)c1ccc(-c2cccc(OC(F)F)c2)o1` [Example 35, (R)-5-(3-(difluoromethoxy)phenyl)-N-((2-((N hydroxyformamido)methyl)heptanamido)methyl) furan-2-carboxamide], the IC50 is under 3.98 µM.

Consider `CCCCC[C@@H](C(=O)NCNC(=O)c1ccc(-c2cc(OCC)cc(C(=O)NCCN)c2)o1)[C@@H](CC)N(O)C=O` [Example 40, 5-(3-((2-aminoethyl)carbamoyl)-5-ethoxyphenyl)-N-(((R)-2-((R)-1-(N-hydroxyformamido)propyl)heptanamido)methyl) furan-2-carboxamide], for which the IC50 is under 3.98 µM.

For the molecule `CCCCC[C@@H](C(=O)NCNC(=O)c1ccc(-c2ccc(CC(=O)O)c(OCC)c2)o1)[C@@H](CC)N(O)C=O` [Example 41, 2-(2-ethoxy-4-(5-((((R)-2-((R)-1-(N-hydroxyformamido)propyl)heptanamido)methyl)carbamoyl)furan-2-yl)phenyl)acetic acid], the IC50 is under 3.98 µM.

Take `CCCCC[C@@H](C(=O)NCNC(=O)c1ccc(-c2ccc(CC(=O)O)cc2)o1)[C@@H](CC)N(O)C=O` [Example 42, 2-(4-(5-((((R)-2-((R)-1-(N-hydroxyformamido)propyl)heptanamido)methyl)carbamoyl)furan-2-yl)phenyl)acetic acid]: the IC50 is under 3.98 µM.

`CCCCC[C@@H](C(=O)NCNC(=O)c1ccc(-c2ccc(C(C)(C)C(=O)O)cc2)o1)[C@@H](CC)N(O)C=O` [Example 43, 2-(4-(5-((((R)-2-((R)-1-(N-hydroxyformamido)propyl)heptanamido)methyl)carbamoyl)furan-2-yl)phenyl)-2-methylpropanoic acid]: the IC50 was under 3.98 µM.

Take `CCCCC[C@@H](C(=O)NCNC(=O)c1ccc(-c2ccc(C3(C(=O)O)CC3)cc2)o1)[C@@H](CC)N(O)C=O` [Example 44, 1-(4-(5-((((R)-2-((R)-1-(N-hydroxyformamido)propyl)heptanamido)methyl)carbamoyl)furan-2-yl)phenyl)cyclopropane-carboxylic acid]: the IC50 was under 3.98 µM.

With `CCCCC[C@@H](C(=O)NCNC(=O)c1ccc(-c2cc(OCC)cc(C(=O)N[C@@H](CCC(=O)O)C(=O)OC(C)(C)C)c2)o1)[C@@H](CC)N(O)C=O` [Example 45, (S)-5-(tert-butoxy)-4-(3-ethoxy-5-(5-((((R)-2-((R)-1-(N-hydroxyformamido)propyl)heptanamido)methyl)carbamoyl)furan-2-yl)benzamido)-5-oxopentanoic acid], the IC50 was under 3.98 µM.

As for `CCCCC[C@@H](C(=O)NCNC(=O)c1ccc(-c2cc(OCC)cc(C(=O)N[C@@H](CCC(=O)OC)C(=O)OC)c2)o1)[C@@H](CC)N(O)C=O` [Example 48, (S)-dimethyl 2-(3-ethoxy-5-(5-((((R)-2-((R)-1-(N-hydroxyformamido)propyl)heptanamido)methyl)carbamoyl)furan-2-yl)benzamido) pentanedioate], the IC50 is under 3.98 µM.

`CCCCC[C@@H](C(=O)NCNC(=O)c1ccc(-c2cc(OCC)cc(C(F)(F)C(=O)O)c2)o1)[C@@H](CC)N(O)C=O` [Example 49, 2-(3-ethoxy-5-(5-((((R)-2-((R)-1-(N-hydroxyformamido)propyl)heptanamido)methyl)carbamoyl)furan-2-yl)phenyl)-2,2-difluoroacetic acid]: the IC50 is under 3.98 µM.

Turning to `CCCCC[C@H](CN(O)C=O)C(=O)NCNC(=O)c1ccc(-c2ccc(F)c(C(=O)OC)c2)o1` [Example 51, (R)-methyl 2-fluoro-5-(5-(((2-((N-hydroxyformamido)methyl)heptanamido)methyl)carbamoyl)furan-2-yl)benzoate], the IC50 was under 3.98 µM.

Regarding `CCCCC[C@H](CN(O)C=O)C(=O)NCNC(=O)c1ccc(-c2cc(OC)cc(OC)c2)o1` [Example 52, (R)-5-(3,5-dimethoxyphenyl)-N-((2-((N-hydroxyformamido)methyl)heptanamido)methyl)furan-2-carboxamide], the IC50 was under 3.98 µM.

In the case of `CCCCC[C@H](CN(O)C=O)C(=O)NCNC(=O)c1ccc(-c2cc(OC)ccc2OC)o1` [Example 53, (R)-5-(2,5-dimethoxyphenyl)-N-((2-((N-hydroxyformamido)methyl)heptanamido)methyl)furan-2-carboxamide], the IC50 is under 3.98 µM.

On to `CCCCC[C@H](CN(O)C=O)C(=O)NCNC(=O)c1ccc(-c2cccc(C(=O)O)c2OC)o1` [Example 55, (R)-3-(5-(((2-((N-hydroxyformamido)methyl)heptanamido)methyl)carbamoyl)furan-2-yl)-2-methoxybenzoic acid], for which the IC50 was under 3.98 µM.

Take `CCCCC[C@H](CN(O)C=O)C(=O)NCNC(=O)c1ccc(-c2cccc(C(=O)O)c2F)o1` [Example 59, (R)-2-fluoro-3-(5-(((2-((N-hydroxyformamido)methyl)heptanamido)methyl)carbamoyl)furan-2-yl)benzoic acid]: the IC50 was under 3.98 µM.

On to `CCCCC[C@H](CN(O)C=O)C(=O)NCNC(=O)c1ccc(-c2cccc(CC(=O)O)c2)o1` [Example 60, (R)-2-(3-(5-(((2-((N-hydroxyformamido)methyl)heptanamido)methyl)carbamoyl)furan-2-yl)phenyl)acetic acid], for which the IC50 is under 3.98 µM.

With `CCCCC[C@H](CN(O)C=O)C(=O)NCNC(=O)c1ccc(-c2cccc(C(=O)O)c2C)o1` [Example 61, (R)-3-(5-(((2-((N-hydroxyformamido)methyl)heptanamido)methyl)carbamoyl)furan-2-yl)-2-methylbenzoic acid], the IC50 was under 3.98 µM.

Take `CCCCC[C@H](CN(O)C=O)C(=O)NCNC(=O)c1ccc(-c2ccc(O)c(C(=O)O)c2)o1` [Example 62, (R)-2-hydroxy-5-(5-(((2-((N-hydroxyformamido)methyl)heptanamido)methyl)carbamoyl)furan-2-yl)benzoic acid]: the IC50 is under 3.98 µM.

Consider `CCCCC[C@H](CN(O)C=O)C(=O)NCNC(=O)c1ccc(-c2ccc(N)c(C(=O)O)c2)o1` [Example 64, (R)-2-amino-5-(5-(((2-((N-hydroxyformamido)methyl)heptanamido)methyl)carbamoyl)furan-2-yl)benzoic acid], for which the IC50 was under 3.98 µM.

`CCCCC[C@@H](C(=O)NCNC(=O)c1ccc(-c2cccc(C(C)(C)C(=O)O)c2)o1)[C@@H](CC)N(O)C=O` [Example 67, 2-(3-(5-((((R)-2-((R)-1-(N-hydroxyformamido)propyl)heptanamido)methyl)carbamoyl)furan-2-yl)phenyl)-2-methylpropanoic acid]: the IC50 was under 3.98 µM.

Staying with this assay, now noted: Homo sapiens, Cardiac fibroblast, read-out: pIC50, PICP cellular inhibition assay (converted).
As for `CCCCC[C@@H](C(=O)NCNC(=O)c1ccc(-c2cc(OCC)cc(P(=O)(OC)OC)c2)o1)[C@@H](CC)N(O)C=O` [Example 50, dimethyl (3-ethoxy-5-(5-((((R)-2-((R)-1-(N-hydroxyformamido)propyl)heptanamido)methyl)carbamoyl)furan-2-yl)phenyl)phosphonate], the IC50 is under 3.98 µM.

For the molecule `CCCCC[C@@H](C(=O)NCNC(=O)c1ccc(-c2cc(OCC)cc(C(=O)NCC[N+](C)(C)C)c2)o1)[C@@H](CC)N(O)C=O` [Example 65, 2-(3-ethoxy-5-(5-((((R)-2-((R)-1-(N-hydroxyformamido)propyl)heptanamido)methyl)carbamoyl)furan-2-yl)benzamido)-N,N,N-trimethylethanaminium hydroxide], the IC50 is under 3.98 µM.

For the molecule `CCCCC[C@@H](C(=O)NCNC(=O)c1ccc(-c2ccc(F)c(CC(=O)O)c2)o1)[C@@H](CC)N(O)C=O` [Example 70, 2-(2-fluoro-5-(5-((((R)-2-((R)-1-(N-hydroxyformamido)propyl)heptanamido)methyl)carbamoyl)furan-2-yl)phenyl)acetic acid], the IC50 was under 3.98 µM.
